Experimental data as given in patent US6905706B2, “Medicinal herbal extract carpediol for treating depression” (Swedish Herbal Institute, priority 2002, dated 2005).
Marks after values point to notes of the source that are not given here.

Legend:
Male Wistar rats = assay: Behavioral despair "forced swimming" test; format: in vivo, rat; settings: 30 min pretreatment; for Duration of immobility: mean ± SEM
From the text: Behavioral despair was proposed as a model to test for antidepressant activity by Porsolt et al (25-27). […] This behavior reflects a state of despair which can be reduced by several agents which are therapeutically effective in human depression.
Procedure—The procedure described by Porsolt et al. (25-27) was used with minor modifications described by Chatterjee et al. (28-29). Male Wistar rats weighing 170-200 g were used. They were brought to the laboratory at least one day before the experiment and were housed separately in cages with free access to food and water. Naive rats were individually forced to swim inside a vertical glass cylinder (height: 50 cm; diameter: 25 cm, containing 20 cm of water maintained at 25° C.). […] After 2-3 minutes, activity began to subside and to be interspersed with phases of immobility or floating of increasing length. After 5-6 minutes, immobility reached a plateau where the rats remained immobile for approximately 80% of the time. After 15 minutes in the water, the rats were removed and allowed to dry in a heated enclosure (32° C.) before being returned to their home cages. Total immobility time, i.e., the time of complete cessation of swimming with the head floating just above water level, was quantified 48 hours later after re-exposing them to the water for 5 minutes. They were placed in the cylinder 48 hours later and the total duration of immobility was measured during a 5 minute test. […] An animal was judged to be immobile whenever it remained floating passively in the water in a slightly hunched but upright position, its nose just above the surface. Test samples (Hypericum extracts: HP, HPSE, Jarsin 300, HRFC, Crassulaceae special extracts, Carpediol) and standard drugs (amitriptyline and Imipramine) were administered 3 times immediately after pre-exposure, and 24 and one hour prior to testing (re-exposure) as described in Chatterjee et al., Antidepressant activity of Hypericum perforatum and Hyperforin: the neglected possibility. Pharmacopsychiatry. 31 (Suppl 1):7-15 1998), which is incorporated by reference herein in its entirety.
Evaluation—Duration of immobility was measured in controls and animals treated with various doses of a test drug or standard. Antidepressant drugs, but also stimulants like amphetamine and caffeine, reduced duration of immobility. Dose-responses were evaluated.
Two series of experiments were performed with the following test drugs:
Series A: HP, HPSE, HRFC, CRE, Jarsin, amitriptyline.
Series B: CRE-A, CRE-B, CRE-C, CRE-D, ASFC, imipramine.
They were group-housed, four per cage at ambient temperature of 20±2° and 40-50% relative humidity, with a 12 hour dark/12 hour light cycle (lighting on time 8 a.m.). The animals had free access to pellet chow (Comby) and drinking water.
The extracts were administered once daily for 3 consecutive days. Experiments were performed on day 3, 1 hour after the last drug or vehicle application. Amitriptyline was used as the standard antidepressant, and was administered in a single dose of 3 mg/kg (p.o.) with a pretreatment time of 30 min.
They were administered in a volume of 5 ml/kg (p.o.). The extracts were administered once daily for 3 consecutive days. Experiments were performed on day 3, 1 hour after the last drug or vehicle application. Imipramine-HCl diluted with water to concentration of 6 mg/ml, positive control was used as the standard antidepressant. Imipramine was administered in a single dose of 30 mg/kg (p.o.) with a pretreatment time of 30 minutes. All behavioral studies were performed between 1-3 p.m. and recorded by a video camera. The tapes were evaluated afterwards by an observer who was not informed about the type of treatment each animal had received.
Statistics—Statistical analysis of the duration of immobilization time of rats in swimming test was performed by unpaired two tailed Students t-test with significance 95% confidence interval. […]

[1] = simultaneous application; cited from earlier work
[2] = Series A, 3 mg/kg p.o. single dose
[3] = Series B, 30 mg/kg p.o. single dose

CN(C)CCC=C1c2ccccc2CCc2ccccc21 [Amitriptyline]
Percent (duration of immobility vs vehicle) (Male Wistar rats; [2]): 66.3%
Percent decrease (duration of immobility) (Male Wistar rats; [2]): 43.7%
Duration of immobility (Male Wistar rats; [2]): 117.8 ± 33.32, n = 8 seconds

CN(C)CCCN1c2ccccc2CCc2ccccc21 [Imipramine]
Percent (duration of immobility vs vehicle) (Male Wistar rats; [3]): 34.9*** Percent
Percent decrease (duration of immobility) (Male Wistar rats; [3]): 65.1*** Percent
Duration of immobility (Male Wistar rats; [3]): 76.0 ± 21.1 n = 6 Seconds

CN/C(=N/CCSCc1nc[nH]c1C)NC#N [cimetidine]
Effect on the metabolism of theophylline (in words) [1]: inhibit

CC(C)NCC(O)COc1cccc2ccccc12 (centres unmarked) [propranolol]
Effect on the metabolism of theophylline (in words) [1]: inhibit
